Assay results from patent US20110065663A1, “ANTI-CANCER COMBINATION THERAPY” (Katholieke Universiteit Leuven, K.U. Leuven R&D, priority 2008, published 2011).
Like-named read-outs stand apart in the source and are kept apart here.

What was measured:
[1] = test system: MCF-7/HYOR cell cultures; assay: Nucleoside metabolism experiments, distribution of drug-derived radiolabel in MCF-7/HYOR cell cultures; format: cell-based, human; conditions: MCF-7/HYOR
Method: Next, the cells were trypsinized, transferred to Eppendorf tubes and centrifuged for 10 minutes at 1,400 rpm. The pellet was resuspended in 1 ml absolute ice-cold methanol and kept on ice for 20 minutes. After centrifugation for 20 minutes at 13,000 rpm the pellet was washed twice with methanol, resuspended in methanol and transferred to scintillation vials containing 9 ml of Ready safe liquid scintillation reagent (‘Hisafe 3’, Perkin Elmer, Waltham, Mass.). The radioactivity was measured by a Liquid scintillation analyzer (2300 TR, Packard, Canberra, Australia). […] Next, the cells were incubated in 0.5 ml absolute ice-cold methanol and kept on ice for 20 minutes. After centrifugation for 20 minutes at 13,000 rpm, the supernatant was subjected to HPLC analysis. […] The amount of compound incorporated into nucleic acids was measured as described above.

[2] = target: T1, E. coli TP (Escherichia coli, UniProt P07650); assay: Enzyme activity assay with recombinant E. coli TP (positive control); format: biochemical; conditions: 0.025 U TP, 200 μM substrate
T1 construct: purchased Sigma
Method: (§1) The TP activity of M. hyorhinis and the conversion of dThd, FdUrd, 5′DFUR and TFT to thymine, 5FU, 5FU or TF-thymine respectively were measured by high-pressure liquid chromatography (HPLC) analysis. MCF-7 and MCF-7/HYOR cells were seeded at a density of 20,000 cells/cm^2 in DMEM with 10% FBS. Four days later, the medium was collected and cleared by centrifugation at 1,400 rpm. For some experiments, the medium of MCF-7/HYOR cells was filtered using a 0.1 μm micro filter (Acrodisc syringe filter, PALL Corporation, East Hills, N.Y.) to remove the mycoplasmas from the medium. 600 μl of the medium was incubated with 200 μM of substrate (dThd, 5′DFUR, TFT or FdUrd) at 37° C. in the presence or absence of 10 μM TPi. At different time points (i.e. 0, 15, 30, 60, 120 minutes and 16 hours), 100 μl aliquots were withdrawn, transferred to Eppendorf tubes and heated at 95° C. for 3 min. Next, the samples were rapidly cooled on ice, exposed for 20 min to 200 μl ice-cold methanol and cleared by centrifugation at 15,000 rpm for 15 minutes. As a positive control, an enzyme activity assay with E. coli TP (Sigma) was performed. For this reaction, 0.025 U of TP were incubated with 200 μM of substrate in TP-buffer (10 mM Tris-HCl, pH 7.6, 1 mM EDTA, 2 mM potassium phosphate and 150 mM NaCl) in a total volume of 600 μl. Aliquots of 100 μl were withdrawn from the reaction mixture at several time points and treated as described above. The nucleosides were separated from their nucleobases on a reversed-phase RP-8 column (Merck, Darmstadt, Germany) and quantified by HPLC analysis (Aliance 2690, Waters, Milford, Mass.). The separation was performed by a linear gradient from 100% buffer B (50 mM NaH2PO4 and 5 mM heptane sulfonic acid, pH 3.2), to 20% buffer B and 80% acetonitrile. Retention times of thymine and thymidine were respectively 5.1 and 10.8 minutes. UV-based detection of all nucleosides was performed at 267 nm.

[3] = test system: M. hyorhinis TP; assay: TP activity in the medium of MCF-7/HYOR cell cultures (HPLC, conversion of nucleoside to free base); format: biochemical, Mycoplasma hyorhinis; conditions: for Percent conversion of nucleoside to the free pyrimidine base in MCF-7/HYOR medium: 37° C.
Method: as §1, with “Retention times of thymine and thymidine were respectively 5.1 and 10.8 minutes.” left out

[4] = Conversion of nucleosides in the medium of uninfected MCF-7 cells; format: biochemical, human; conditions: even after 24 hours of incubation; data not shown
Method: as §1, with “At different time points (i.e. 0, 15, 30, 60, 120 minutes and 16 hours), 100 μl aliquots were withdrawn, transferred to Eppendorf tubes and heated at 95° C. for 3 min.” left out, “Retention times of thymine and thymidine were respectively 5.1 and 10.8 minutes.” left out

[5] = test system: MCF-7/HYOR cells; assay: Nucleotide incorporation assay, MCF-7/HYOR compared with MCF-7 cells; format: cell-based, human; conditions: 1 μCi radiolabeled compound; FIG. 4
Method: MCF-7 and MCF-7/HYOR cells were seeded at 10,000 cells/cm. After 48 hours, cells were treated with 1 μCi of ^3H-labeled nucleoside with or without 10 μM TPi. 16 h later, the medium was removed and the cells were washed twice with PBS. Next, the cells were trypsinized, transferred to Eppendorf tubes and centrifuged for 10 minutes at 1,400 rpm. The pellet was resuspended in 1 ml absolute ice-cold methanol and kept on ice for 20 minutes. After centrifugation for 20 minutes at 13,000 rpm the pellet was washed twice with methanol, resuspended in methanol and transferred to scintillation vials containing 9 ml of Ready safe liquid scintillation reagent (‘Hisafe 3’, Perkin Elmer, Waltham, Mass.). The radioactivity was measured by a Liquid scintillation analyzer (2300 TR, Packard, Canberra, Australia).

[6] = test system: M. hyorhinis; assay: Staining of DNA with Hoechst 33342, growth of M. hyorhinis in MCF-7 cell cultures; format: cell-based, Mycoplasma hyorhinis; conditions: 10 μM; 3 days
Method: 10,000 cells/cm^2 (MCF-7 and MCF-7/HYOR) were seeded in 8-well chamber slides (Nunc, Roskilde, Denmark). After 24 hours, 10 μM TPi was added and the cells were incubated for an additional 72 hours. Next, the cells were fixed with Carnoy's fixative (1 part glacial acetic acid to 3 parts absolute methanol) for 10 minutes, air-dried and exposed to the DNA-binding dye Hoechst 33342 (Sigma) at a concentration of 0.5 μg/ml for 15 min at room temperature. Next, the cells were washed twice with de-ionised water and covered with mounting medium (‘glycergel’, Dako, Glostrup, Denmark) and a cover slip. Fluorescence was visualised with a Leica TCS SP5 confocal microscope (Leica, Wetzlar, Germany).

[7] = test system: MCF-7/HYOR cells; assay: Tumor cell proliferation assay, M. hyorhinis-infected MCF-7 cells; format: cell-based, human; conditions: for IC50: Homo sapiens
Method: Mycoplasma hyorhinis (ATCC 17981) was obtained from the American Type Culture Collection (ATCC, Manassas, Va.). The freeze-dried bacteria were reconstituted by adding 1 ml of DMEM. […] The co-culture of MCF-7 cells and M. hyorhinis was maintained under the same conditions as the uninfected MCF-7 cells. […] The cells were incubated for another 4 days, trypsinized and counted by a Coulter counter (Analis, Suarlée, Belgium).

[8] = test system: MCF-7 cells; assay: Tumor cell proliferation assay, uninfected MCF-7 cells; format: cell-based, human; conditions: Homo sapiens, uninfected MCF-7
Method: MCF-7 and MCF-7/HYOR cells were seeded in 48-well plates at 10,000 cells/cm^2. […] of the test compounds (5FU, 5′DFUR, CIdUrd, BrdUrd, IdUrd and TFT) with or without 10 μM TPi were added. The cells were incubated for another 4 days, trypsinized and counted by a Coulter counter (Analis, Suarlée, Belgium). In some experiments, the antibiotic plasmocin was added one or three days before addition of the test compounds.

T1 sequence (P07650 whole entry): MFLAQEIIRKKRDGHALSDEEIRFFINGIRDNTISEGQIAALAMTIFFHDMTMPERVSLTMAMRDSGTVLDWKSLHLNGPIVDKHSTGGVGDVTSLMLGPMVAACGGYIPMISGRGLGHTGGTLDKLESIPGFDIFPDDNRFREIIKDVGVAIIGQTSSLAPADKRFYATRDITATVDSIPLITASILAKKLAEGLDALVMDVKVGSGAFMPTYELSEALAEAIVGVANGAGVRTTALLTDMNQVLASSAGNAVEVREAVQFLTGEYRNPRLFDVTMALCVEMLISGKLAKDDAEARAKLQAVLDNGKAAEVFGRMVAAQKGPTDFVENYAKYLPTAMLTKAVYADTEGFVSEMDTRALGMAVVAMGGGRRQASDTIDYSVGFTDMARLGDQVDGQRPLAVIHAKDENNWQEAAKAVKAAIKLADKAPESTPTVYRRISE

For Cc1cn([C@H]2C[C@H](O)[C@@H](CO)O2)c(=O)[nH]c1=O [dThd, thymidine], the “% of drug-derived radiolabel, In medium, Base” value ([1]; 1 μCi, 16 h) was 74.6%, the “% of drug-derived radiolabel, In medium, Nucleoside” value ([1]; 1 μCi, 16 h) was 11.5% and the “% of drug-derived radiolabel, In the cytosol of the cells, 5′-diphosphate” value ([1]; 1 μCi, 16 h) was 0.3%. For the same compound, the “% of drug-derived radiolabel, In the cytosol of the cells, 5′-monophosphate” value ([1]; 1 μCi, 16 h) was 0.6%, the “% of drug-derived radiolabel, In the cytosol of the cells, 5′-triphosphate” value ([1]; 1 μCi, 16 h) was 0.2% and the “% of drug-derived radiolabel, In the cytosol of the cells, Nucleoside/nucleobase” value ([1]; 1 μCi, 16 h) was 7.5%. The “% of drug-derived radiolabel, Incorporatio into DNA/RNA” value ([1]; 1 μCi, 16 h) was 5.3%, the “Share incorporated into the nucleic acids in the presence of TPi” value ([1]; in the presence of TPi) was “almost all” and the “Percent conversion of nucleoside to the free pyrimidine base, recombinant E. coli TP” value ([2]; 2 hours) was 82%. For the same compound, the “Percent conversion of nucleoside to the free pyrimidine base, recombinant E. coli TP” value ([2]; 16 hours) was 93%, the “Percent conversion of nucleoside to the free pyrimidine base in MCF-7/HYOR medium” value ([3]; 16 hours, 200 μM substrate) was 97% and the “Thymidine degraded into thymine” value ([3]; within 60 minutes, FIG. 3) was “almost all”. The “Conversion in the medium of uninfected MCF-7 cells” value [4] was “no conversion” and the “Reduction of incorporation into nucleic acids in infected MCF-7/HYOR cells in comparison with uninfected MCF-7 cells” value [5] was 85 fold.

For Cl.N=C1CCCN1Cc1[nH]c(=O)[nH]c(=O)c1Cl [TPi, 5-chloro-6-(1 [2-iminopyrrolidinyl]methyl)uracil hydrochloride], the “Effect on the growth of M. hyorhinis in MCF-7 cell cultures” value [6] was “not inhibitory” and the “Inhibition of conversion of dThd, TFT, FdUrd and 5′DFUR to their free bases in MCF-7/HYOR culture medium” value ([3]; 10 μM TPi, 200 μM substrate) was “completely inhibited”.

For C[C@H]1O[C@@H](n2cc(F)c(=O)[nH]c2=O)[C@H](O)[C@@H]1O [5′DFUR, 5-fluoro-5′-deoxyuridine], the IC50 ([7]; MCF7, read-out: IC50 MCF-7/HYOR +TPi (10 μM)) was over 100 µM, the IC50 ([7]; MCF7, read-out: IC50 MCF-7/HYOR As such) was 3.5 ± 0.53 µM and the IC50 ([7]; MCF7, plasmocin 25 μg/ml, 1 day pretreatment, read-out: IC50 MCF-7/HYOR +plasmocin (25 μg/ml) 1 day prior to addition of test compounds) was over 100 µM. For the same compound, the IC50 ([7]; MCF7, plasmocin 25 μg/ml, 3 days pretreatment, read-out: IC50 MCF-7/HYOR +plasmocin (25 μg/ml) 3 days prior to addition of test compounds) was over 100 µM, the “Ratio (1)/(2) MCF-7/HYOR” value ([7]; IC50 in the absence of TPi to IC50 in the presence of TPi) was under 0.035 and the “Percent conversion of nucleoside to the free pyrimidine base, recombinant E. coli TP” value ([2]; 2 hours) was 26%. For the same compound, the “Percent conversion of nucleoside to the free pyrimidine base, recombinant E. coli TP” value ([2]; 16 hours) was 64%, the “Percent conversion of nucleoside to the free pyrimidine base in MCF-7/HYOR medium” value ([3]; 2 hours, 200 μM substrate) was 5% and the “Percent conversion of nucleoside to the free pyrimidine base in MCF-7/HYOR medium” value ([3]; 16 hours, 200 μM substrate) was 22%. For the same compound, the “Conversion in the medium of uninfected MCF-7 cells” value [4] was “no conversion”, the IC50 ([8]; MCF7, 96 h, no TPi, 4 days, read-out: IC50 MCF-7 As such) was over 100 µM and the IC50 ([8]; MCF7, with 10 μM TPi, read-out: IC50 MCF-7 +TPi (10 μM)) was over 100 µM.
